# Test results as given in patent US9284358B2 (UNIVERSITY OF UTAH RESEARCH FOUNDATION, priority 2006, dated 2016).
# Positions of bridges follow the written chain, without caps; N, C: chain ends. Residues, ends and D or L forms follow the SMILES beside them.
# Experiments:
# human α9α10 nAChR = target: T1, human α9α10 nAChR (Homo sapiens, UniProt Q9GZZ6+Q9UGM1); assay: cell-based
# T1 construct: expressed in transfected cells; host or cells: oocytes
# α9α10 nAChR = target: T2, α9α10 nAChR (Rattus norvegicus, UniProt P43144+Q9JLB5); assay: cell-based
# T2 construct: expressed in transfected cells; host or cells: oocytes
# T2 sequence (P43144 26-479 limits assumed): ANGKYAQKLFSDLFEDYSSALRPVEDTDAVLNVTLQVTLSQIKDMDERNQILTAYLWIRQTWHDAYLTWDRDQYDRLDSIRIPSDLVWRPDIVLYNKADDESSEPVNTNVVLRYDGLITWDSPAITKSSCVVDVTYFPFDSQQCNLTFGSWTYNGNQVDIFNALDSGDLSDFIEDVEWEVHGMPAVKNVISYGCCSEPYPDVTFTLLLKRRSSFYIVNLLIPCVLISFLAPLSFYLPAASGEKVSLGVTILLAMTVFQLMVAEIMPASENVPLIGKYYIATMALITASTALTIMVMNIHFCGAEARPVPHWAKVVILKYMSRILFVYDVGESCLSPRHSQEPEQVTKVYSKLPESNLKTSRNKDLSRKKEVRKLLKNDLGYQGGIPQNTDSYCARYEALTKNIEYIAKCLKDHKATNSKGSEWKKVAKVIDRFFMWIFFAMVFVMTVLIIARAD
# T2 sequence (Q9JLB5 25-447 limits assumed): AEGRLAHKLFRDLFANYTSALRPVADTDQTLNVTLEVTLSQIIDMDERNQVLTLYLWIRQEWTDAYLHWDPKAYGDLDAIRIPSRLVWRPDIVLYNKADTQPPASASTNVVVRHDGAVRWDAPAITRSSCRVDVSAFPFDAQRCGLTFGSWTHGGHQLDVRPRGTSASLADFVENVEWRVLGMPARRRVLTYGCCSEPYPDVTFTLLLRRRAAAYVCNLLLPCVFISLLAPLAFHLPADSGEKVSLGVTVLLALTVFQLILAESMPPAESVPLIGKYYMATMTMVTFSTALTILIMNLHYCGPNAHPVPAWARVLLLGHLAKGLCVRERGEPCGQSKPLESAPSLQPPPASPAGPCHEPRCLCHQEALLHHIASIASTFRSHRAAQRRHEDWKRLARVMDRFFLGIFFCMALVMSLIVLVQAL
# T1 sequence (Q9UGM1 26-479 limits assumed): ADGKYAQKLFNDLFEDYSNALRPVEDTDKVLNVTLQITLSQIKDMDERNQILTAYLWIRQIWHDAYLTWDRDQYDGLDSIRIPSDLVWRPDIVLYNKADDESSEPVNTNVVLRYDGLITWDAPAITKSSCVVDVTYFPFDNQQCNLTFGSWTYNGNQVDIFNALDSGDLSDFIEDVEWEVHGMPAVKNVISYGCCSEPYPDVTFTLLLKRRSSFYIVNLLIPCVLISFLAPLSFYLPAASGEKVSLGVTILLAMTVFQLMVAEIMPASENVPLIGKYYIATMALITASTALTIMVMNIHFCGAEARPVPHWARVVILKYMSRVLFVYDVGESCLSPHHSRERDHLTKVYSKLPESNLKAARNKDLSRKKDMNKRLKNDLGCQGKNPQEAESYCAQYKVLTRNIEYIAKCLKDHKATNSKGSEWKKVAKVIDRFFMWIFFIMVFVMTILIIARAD
# T1 sequence (Q9GZZ6 25-450): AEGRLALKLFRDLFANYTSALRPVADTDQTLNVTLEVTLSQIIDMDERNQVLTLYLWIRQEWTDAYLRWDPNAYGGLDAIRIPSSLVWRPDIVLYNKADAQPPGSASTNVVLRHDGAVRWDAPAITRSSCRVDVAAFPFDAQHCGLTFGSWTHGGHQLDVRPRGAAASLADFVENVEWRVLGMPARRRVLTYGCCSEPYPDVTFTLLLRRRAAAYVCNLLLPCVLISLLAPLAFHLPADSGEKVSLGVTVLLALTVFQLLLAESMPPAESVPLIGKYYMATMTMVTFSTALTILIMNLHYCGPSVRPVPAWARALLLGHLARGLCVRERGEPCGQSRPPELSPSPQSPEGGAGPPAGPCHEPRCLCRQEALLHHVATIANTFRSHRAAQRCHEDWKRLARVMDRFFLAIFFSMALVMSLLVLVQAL
Compound,IC50 (human α9α10 nAChR) [nM],IC50 (α9α10 nAChR) [nM]
C[C@@H](O)[C@@H]1NC(=O)[C@@H]2CSSC[C@@H](C(=O)N[C@@H](CCCNC(=N)N)C(=O)O)NC(=O)[C@H](CCCNC(=N)N)NC(=O)[C@H](Cc3ccc(O)cc3)NC(=O)[C@H](CCCNC(=N)N)NC(=O)[C@H](CSSC[C@H](NC(=O)CN)C(=O)N2)NC(=O)[C@H](CCCNC(=N)N)NC(=O)[C@@H]2CCCN2C(=O)[C@H](CC(=O)O)NC1=O [SEQ ID NO:3],281,–
N=C(N)NCCC[C@H](NC(=O)[C@@H]1CSSC[C@@H]2NC(=O)[C@@H](NC(=O)CN)CSSC[C@H](NC(=O)[C@H](CCCNC(=N)N)NC(=O)[C@@H]3CCCN3C(=O)[C@H](CC(=O)O)NC(=O)[C@H](CO)NC2=O)C(=O)N[C@@H](CCCNC(N)=O)C(=O)N[C@@H](Cc2ccc(O)cc2)C(=O)N[C@@H](CCCNC(=N)N)C(=O)N1)C(=O)O [SEQ ID NO:9],416,2.4
N=C(N)NCCCC[C@@H]1NC(=O)[C@@H]2CSSC[C@H](NC(=O)CN)C(=O)N[C@@H](CSSC[C@@H](C(=O)N[C@@H](CCCNC(=N)N)C(=O)O)NC(=O)[C@H](CCCNC(=N)N)NC(=O)[C@H](Cc3ccc(O)cc3)NC1=O)C(=O)N[C@@H](CO)C(=O)N[C@@H](CC(=O)O)C(=O)N1CCC[C@H]1C(=O)N[C@@H](CCCNC(=N)N)C(=O)N2 [SEQ ID NO:11],> 1000,> 1000
N=C(N)NCCC[C@H](NC(=O)[C@@H]1CSSC[C@@H]2NC(=O)[C@@H](NC(=O)CN)CSSC[C@H](NC(=O)[C@H](CCCNC(=N)N)NC(=O)[C@@H]3CCCN3C(=O)[C@H](CC(=O)O)NC(=O)[C@H](CO)NC2=O)C(=O)N[C@@H](CCCCN)C(=O)N[C@@H](Cc2ccc(O)cc2)C(=O)N[C@@H](CCCNC(=N)N)C(=O)N1)C(=O)O [SEQ ID NO:14],–,> 1000
"N=C(N)NCCC[C@H](NC(=O)[C@@H]1CSSC[C@@H]2NC(=O)[C@@H](NC(=O)CN)CSSC[C@H](NC(=O)[C@H](CCCNC(=N)N)NC(=O)[C@@H]3CCCN3C(=O)[C@H](CC(=O)O)NC(=O)[C@H](CO)NC2=O)C(=O)N[C@@H](CCCNC(=N)N)C(=O)N[C@@H](Cc2c[nH]c3ccccc23)C(=O)N[C@@H](CCCNC(=N)N)C(=O)N1)C(=O)O [SEQ ID NO:16] (H-GCCSDPRCRWRCR-OH; disulfide 2-8, 3-12)",268,11
"N=C(N)NCCC[C@H](NC(=O)[C@@H]1CSSC[C@@H]2NC(=O)[C@@H](NC(=O)CN)CSSC[C@H](NC(=O)[C@H](CCCNC(=N)N)NC(=O)[C@@H]3CCCN3C(=O)[C@H](CC(=O)O)NC(=O)[C@H](CO)NC2=O)C(=O)N[C@@H](CCCNC(=N)N)C(=O)N[C@@H](Cc2ccccc2)C(=O)N[C@@H](CCCNC(=N)N)C(=O)N1)C(=O)O [SEQ ID NO:17] (H-GCCSDPRCRFRCR-OH; disulfide 2-8, 3-12)",> 1000,8
"C[C@@H]1NC(=O)[C@@H]2CSSC[C@@H](C(=O)N[C@@H](CCCNC(=N)N)C(=O)O)NC(=O)[C@H](CCCNC(=N)N)NC(=O)[C@H](Cc3ccc(O)cc3)NC(=O)[C@H](CCCNC(=N)N)NC(=O)[C@H](CSSC[C@H](NC(=O)CN)C(=O)N2)NC(=O)[C@H](CCCNC(=N)N)NC(=O)[C@@H]2CCCN2C(=O)[C@H](CC(=O)O)NC1=O [SEQ ID NO:20] (H-GCCADPRCRYRCR-OH; disulfide 2-8, 3-12)",> 1000,14.5
"N=C(N)NCCC[C@@H]1NC(=O)[C@H](Cc2ccc(O)cc2)NC(=O)[C@H](CCCNC(=N)N)NC(=O)[C@@H]2CSSC[C@H](NC(=O)CN)C(=O)N[C@@H](CSSC[C@@H](C(N)=O)NC1=O)C(=O)N[C@@H](CO)C(=O)N[C@@H](CC(=O)O)C(=O)N1CCC[C@H]1C(=O)N[C@@H](CCCNC(=N)N)C(=O)N2 [SEQ ID NO:21] (H-GCCSDPRCRYRC-NH2; disulfide 2-8, 3-12)",–,7.8
"N=C(N)NCCC[C@H](NC(=O)[C@@H]1CSSC[C@@H]2NC(=O)[C@@H](NC(=O)CN)CSSC[C@H](NC(=O)[C@H](CCCNC(=N)N)NC(=O)[C@@H]3CCCN3C(=O)[C@H](CCC(=O)O)NC(=O)[C@H](CO)NC2=O)C(=O)N[C@@H](CCCNC(=N)N)C(=O)N[C@@H](Cc2ccc(O)cc2)C(=O)N[C@@H](CCCNC(=N)N)C(=O)N1)C(=O)O [SEQ ID NO:22] (H-GCCSEPRCRYRCR-OH; disulfide 2-8, 3-12)",–,6600
"CC(C)[C@@H]1NC(=O)[C@H](CC(=O)O)NC(=O)[C@H](CO)NC(=O)[C@@H]2CSSC[C@@H](C(=O)N[C@@H](CCCNC(=N)N)C(=O)O)NC(=O)[C@H](CCCNC(=N)N)NC(=O)[C@H](Cc3ccc(O)cc3)NC(=O)[C@H](CCCNC(=N)N)NC(=O)[C@H](CSSC[C@H](NC(=O)CN)C(=O)N2)NC(=O)[C@H](CCCNC(=N)N)NC1=O [SEQ ID NO:23] (H-GCCSDVRCRYRCR-OH; disulfide 2-8, 3-12)",–,4100
"C[C@@H]1NC(=O)[C@@H]2CSSC[C@H](NC(=O)CN)C(=O)N[C@@H](CSSC[C@@H](C(=O)N[C@@H](CCCNC(=N)N)C(=O)O)NC(=O)[C@H](CCCNC(=N)N)NC(=O)[C@H](Cc3ccc(O)cc3)NC1=O)C(=O)N[C@@H](CO)C(=O)N[C@@H](CC(=O)O)C(=O)N1CCC[C@H]1C(=O)N[C@@H](CCCNC(=N)N)C(=O)N2 [SEQ ID NO:24] (H-GCCSDPRCAYRCR-OH; disulfide 2-8, 3-12)",–,13000
"C[C@@H]1NC(=O)[C@@H]2CCCN2C(=O)[C@H](Cc2c[nH]cn2)NC(=O)[C@H](CO)NC(=O)[C@@H]2CSSC[C@@H](C(=O)N[C@@H](CCCNC(=N)N)C(=O)O)NC(=O)[C@H](CCCNC(=N)N)NC(=O)[C@H](Cc3ccc(O)cc3)NC(=O)[C@H](CCCNC(=N)N)NC(=O)[C@H](CSSC[C@H](NC(=O)CN)C(=O)N2)NC1=O [SEQ ID NO:25] (H-GCCSHPACRYRCR-OH; disulfide 2-8, 3-12)",–,> 10000
"N=C(N)NCCC[C@H](NC(=O)[C@@H]1CSSC[C@@H]2NC(=O)[C@@H](NC(=O)CN)CSSC[C@H](NC(=O)[C@H](CCCNC(=N)N)NC(=O)[C@@H]3CCCN3C(=O)[C@H](CC(=O)O)NC(=O)[C@H](CO)NC2=O)C(=O)N[C@@H](CCCNC(=N)N)C(=O)N[C@@H](Cc2ccc(O)cc2)C(=O)N[C@@H](CCC(N)=O)C(=O)N1)C(=O)O [SEQ ID NO:32] (H-GCCSDPRCRYQCR-OH; disulfide 2-8, 3-12)",202,–
"N=C(N)NCCC[C@H](NC(=O)[C@@H]1CSSC[C@@H]2NC(=O)[C@@H](NC(=O)CN)CSSC[C@H](NC(=O)[C@H](CCCNC(=N)N)NC(=O)[C@@H]3CCCN3C(=O)[C@H](CC(=O)O)NC(=O)[C@H](Cc3ccc(O)cc3)NC2=O)C(=O)N[C@@H](CCCNC(=N)N)C(=O)N[C@@H](Cc2ccc(O)cc2)C(=O)N[C@@H](CCCNC(=N)N)C(=O)N1)C(=O)O [SEQ ID NO:34] (H-GCCYDPRCRYRCR-OH; disulfide 2-8, 3-12)",> 1000,–
"N=C(N)NCCC[C@H](NC(=O)[C@@H]1CSSC[C@@H]2NC(=O)[C@@H](NC(=O)CN)CSSC[C@H](NC(=O)[C@H](CCCNC(=N)N)NC(=O)[C@@H]3CCCN3C(=O)[C@H](CC(=O)O)NC(=O)[C@H](CO)NC2=O)C(=O)N[C@@H](CCCNC(=N)N)C(=O)N[C@@H](Cc2ccc(O)cc2)C(=O)N[C@@H](Cc2c[nH]cn2)C(=O)N1)C(=O)O [SEQ ID NO:36] (H-GCCSDPRCRYHCR-OH; disulfide 2-8, 3-12)",> 1000,–
